In one series the test system is A. baumannii XDR UW 5075. Kind of series: Checkerboard titration MIC with efflux pump inhibitor PAβN. The series is classed as cell-based, Acinetobacter baumannii. As to conditions: for MIC in combination with PAβN: PAβN concentration not given in the sentence. Here is the method: To determine if expression of efflux pumps would play a role in the efflux of the cinnamaldehyde derivatives leading to poor antimicrobial activity, interactions between PAβN and the LXC compounds were assessed by checkerboard titration assay. The checkerboard titration assay was performed as previously described ([Chai et al., 2020]). Briefly, PAβN was added in the first row and serially diluted in CaMH broth along the ordinate of the microwell plate while the LXC compounds were serially diluted along the abscissa. Bacterial suspension for A. baumannii ATCC 19606 or AB UW 5075 100 μL/well were added as described for the MIC assay. Bacterial growth was assessed at A600 nm between time 0 and 18 h (Cytation5® Cell Imaging Multi-Mode Reader, Bio-Tek®).

Series [1] has as its system Escherichia coli ATCC 35218. Put plainly: Antibacterial activity (MIC), microbroth dilution. In kind it is cell-based. Conditions: Escherichia coli, ATCC35218, read-out: Antibacterial activity (MIC). Here is the method:
(§1) Reference bacterial strains were obtained from the American Type Culture Collection (ATCC). Vancomycin resistant Enterococcus faecium (VRE 734, wastewater isolate from the Venter Laboratory Collection) was isolated on Bile Esculin agar (Oxoid, Australia) containing 6 μg/mL vancomycin and identified using MALDI-TOF mass spectrometry (Bruker, Preston, Victoria, Australia, Australian Center for Antimicrobial Resistance Ecology). The Pseudomonas aeruginosa WT PAO1 and Escherichia coli with deletions of both acrA and acrB genes encoding drug efflux pumps were obtained from the Venter laboratory stock ([Welch et al., 2010]). The protocol for microbial growth was adopted from the European Committee on Antimicrobial Susceptibility Testing (EUCAST) ([European Committee for Antimicrobial Susceptibility Testing, 2016]).
(§2) Non-fastidious bacteria and clinical isolates were maintained in Mueller Hinton (MH) broth (Acumedia, United Kingdom) supplemented with 15% (v/v) glycerol (Chem-Supply, Australia), cultured on Mueller Hinton (MH) agar (Acumedia, United Kingdom) plated and incubated at 37°C. Fastidious bacteria were maintained in Brain Heart Infusion (BHI) broth (Acumedia, United Kingdom) supplemented with 15% (v/v) glycerol at −80°C. The fastidious bacteria were cultured on MH agar plates supplemented with 5% (v/v) lysed horse blood and 3% (v/v) fetal bovine serum and incubated at 30°C in the presence of 5% CO2. Drug susceptibility assays were carried out with the non-fastidious cultures grown in cation-adjusted Mueller Hinton (CaMH) broth (Becton Dickinson, France). Streptococcus pyogenes was grown in CaMH broth supplemented with 5% (v/v) lysed horse blood and 3% (v/v) fetal bovine serum whereas Enterococcus faecium was grown in BHI broth.
(§3) The minimum inhibitory concentrations (MICs) for all six compounds were determined using the microbroth dilution protocol as per EUCAST with an inoculum of approximately […] in an exponential growth phase ([European Committee for Antimicrobial Susceptibility Testing, 2016]). Bacterial suspension, 100 μL/well, was added to 100 μL/well of drug dilutions, then incubated for 18 h at 37°C. Fastidious bacterial suspensions were instead incubated at 30°C in the presence of 5% CO2. Bacterial growth was assessed by measuring the change in A600 nm between time 0 and 18 h (Cytation5® Cell Imaging Multi-Mode Reader, Bio-Tek®). Levofloxacin was used as the positive control. Assays were completed in duplicate in at least three independent experiments.
On the technique in general: Broth dilution looks for growth in wells or tubes with falling amounts of substance.

In series [2] the test system is Escherichia coli WT BW 25113. Put plainly: Antibacterial activity (MIC), microbroth dilution. Conditions: Escherichia coli, WTBW25113, read-out: Antibacterial activity (MIC). In kind it is cell-based. Here is the method:
as §1, §2, §3

Series [3] deals with Klebsiella pneumoniae ATCC 13883. Kind of series: Antibacterial activity (MIC), microbroth dilution. In kind it is cell-based. Conditions: Klebsiella pneumoniae, ATCC13883, read-out: Antibacterial activity (MIC). Here is the method:
as §1, §2, §3

Series [4] deals with Klebsiella pneumoniae ATCC 33495. Kind of series: Antibacterial activity (MIC), microbroth dilution. In kind it is cell-based. Conditions: Klebsiella pneumoniae, ATCC33495, read-out: Antibacterial activity (MIC). Here is the method:
as §1, §2, §3

The test system of series [5] is Klebsiella pneumoniae ATCC 4352. Put plainly: Antibacterial activity (MIC), microbroth dilution. The series is classed as cell-based. As to conditions: Klebsiella pneumoniae, ATCC4352, read-out: Antibacterial activity (MIC). Here is the method: as §1, §2, §3
Series [6] deals with Pseudomonas aeruginosa WT PAO1. Kind of series: Antibacterial activity (MIC), microbroth dilution. In kind it is cell-based. As to conditions: Pseudomonas aeruginosa, PAO1, read-out: Antibacterial activity (MIC). Here is the method: as §1, §2, §3
Series [7] relates to Streptococcus pneumoniae (type 3, mucoid strain) ATCC 6303. Put plainly: Antibacterial activity (MIC), microbroth dilution. The series is classed as cell-based. As to conditions: Streptococcus pneumoniae, ATCC6303, read-out: Antibacterial activity (MIC). Here is the method: as §1, §2, §3
Series [8] deals with Streptococcus pyogenes ATCC 10389. Put plainly: Antibacterial activity (MIC), microbroth dilution. As to conditions: Streptococcus pyogenes, ATCC10389, read-out: Antibacterial activity (MIC). In kind it is cell-based. Here is the method: as §1, §2, §3
A further series relates to Caenorhabditis elegans. Put plainly: Nematode toxicity (survival). The series is classed as in vivo. Conditions: 1 × and 2 × MIC, up to 72 h, 25°C. Here is the method: Protocols for growing, harvesting, and synchronizing C. elegans have been previously described ([Porta-de-la-Riva et al., 2012]; [Chai et al., 2020]) and were performed with the following modifications. The nematodes were treated with LXC compounds 1 to 6 at 1 × and 2 × MIC with at least 3 replicates using a final DMSO concentration of 2% (v/v). The plate was incubated at 25°C and the number of live vs dead nematodes was enumerated every 24 h for 72 h. […] The percentage of living nematodes at each time point across 72 h was calculated to give the percentage of survival.
FIGURE 10 The LXC compounds (apart from compound 5) were not cytotoxic to C. elegans nematodes. (A–F) C. elegans nematodes were cultured on nematode growth media agar plate and harvested in optimized growth media, with E. coli as its primary source of nutrient. […] The nematodes were counted under a light microscope at 400× magnification and the live nematodes at 72 h was indicated as a fraction of the starting number of nematodes (percentage survival). The results are presented in mean percentage of survival ± SEM. Statistical analysis was performed using two-way ANOVA and the asterisks (*) represent statistical significance: LXC 41 (5) at time 72 h (*p < 0.05).

For the next series, the system named is E. coli FtsZ. As to conditions: FtsZ from E. coli, 120 μg/mL; ref Li et al., 2015a; cited from earlier work.
Setting [9] is: A. baumannii XDR UW 5075, +PAβN 50 μg/mL.
Where [10] appears, read: Acinetobacter baumannii, XDRUW5075.
The mark [11] stands for this setting: Acinetobacter baumannii, XDRUW5075, A. baumannii XDR UW 5075, +PAβN 100 μg/mL, read-out: MIC.
[12] abbreviates: Acinetobacter baumannii, XDRUW5075, A. baumannii XDR UW 5075, +PAβN 200 μg/mL, read-out: MIC.

Values after ≈ are worked out from the molar mass of the structure shown. Read-outs that look alike come from different tables or passages of the source. A value given as a limit tells only on which side of the number the result lay.

The source of these data is paper PMC9465178, “Cinnamaldehyde derivatives act as antimicrobial agents against Acinetobacter baumannii through the inhibition of cell division” (Frontiers in Microbiology, 2022).

In general, MIC refers to the smallest concentration in the dilution series that meets the test's criterion for growth inhibition.

For the molecule `Cc1nc2ccccc2n1C(=O)/C=C/c1ccc(Cl)cc1Cl` [Compound 6], the MIC was more than 128 µg/mL in the series with A. baumannii XDR UW 5075 (setting [9]); more than 128 µg/mL with A. baumannii XDR UW 5075 (setting [10]); 32 µg/mL in the series with A. baumannii XDR UW 5075 (setting [11]); 32 µg/mL in the series on A. baumannii XDR UW 5075 (setting [12]); more than 256 µg/mL in series [1]; more than 256 µg/mL in [2]. For the same molecule, the minimal inhibitory concentration (MIC) in [3] is more than 256 µg/mL; in [4] it was more than 256 µg/mL; in [5], more than 256 µg/mL; in series [6], 256 µg/mL (≈ 773 µM); in series [7], 256 µg/mL (≈ 773 µM); in [8], more than 256 µg/mL. Further, the “MIC in combination with PAβN” value with A. baumannii XDR UW 5075 (A. baumannii XDR UW 5075) came to 32 µg/mL. Also, in the series with Caenorhabditis elegans, the “Toxicity toward C. elegans (survival)” value is “devoid of hemolytic activity and cytotoxicity against mammalian cells in vitro, as well as adverse activity in a Caenorhabditis elegans nematode model”. The “Effect on FtsZ polymerization, light scattering” value (“Effect on FtsZ polymerization” below) with E. coli FtsZ is “impaired polymerization”.
Take `COc1ccc(/C=C/C(=O)n2c(C)nc3ccccc32)cc1OC` [Compound 5]: the MIC with A. baumannii XDR UW 5075 (setting [9]) was more than 128 µg/mL; with A. baumannii XDR UW 5075 (setting [10]), more than 128 µg/mL; in the series on A. baumannii XDR UW 5075 (setting [11]), 64 µg/mL; in the series on A. baumannii XDR UW 5075 (setting [12]), 32 µg/mL; in series [1], more than 256 µg/mL; in series [2], more than 256 µg/mL. In addition, the MIC in series [3] was more than 256 µg/mL; in series [4], more than 256 µg/mL; in series [5], more than 256 µg/mL; in series [6] it was more than 256 µg/mL; in [7], 256 µg/mL (≈ 794 µM); in series [8], more than 256 µg/mL. Besides, in the series with A. baumannii XDR UW 5075 (A. baumannii XDR UW 5075), the “MIC in combination with PAβN” value turned out to be 32 µg/mL. Moreover, the “Toxicity toward C. elegans (survival)” value in the series with Caenorhabditis elegans is recorded as “significant toxicity (p < 0.05) but only after 72 h treatment”.
For the molecule `Cc1nc2ccccc2n1C(=O)/C=C/c1ccc(Cl)cc1` [Compound 3], the minimum inhibitory concentration (MIC) in the series on A. baumannii XDR UW 5075 (setting [9]) is more than 128 µg/mL; with A. baumannii XDR UW 5075 (setting [10]), more than 128 µg/mL; with A. baumannii XDR UW 5075 (setting [11]) it was 128 µg/mL; in the series on A. baumannii XDR UW 5075 (setting [12]), 64 µg/mL; in series [1] it was more than 256 µg/mL; in series [2], more than 256 µg/mL. Besides, the MIC was more than 256 µg/mL in series [3]; more than 256 µg/mL in [4]; more than 256 µg/mL in [5]; more than 256 µg/mL in series [6]; 256 µg/mL (≈ 863 µM) in [7]; more than 256 µg/mL in series [8]. Further, in the series on Caenorhabditis elegans, the “Toxicity toward C. elegans (survival)” value is given as “do not have in vivo toxicity in this model at 2 × MICs for up to 72 h”. In addition, in the series on E. coli FtsZ, the “Effect on FtsZ polymerization” value is listed as “impaired polymerization”.
Regarding `Cc1nc2ccccc2n1C(=O)/C=C/c1ccc(Br)cc1` [Compound 4], the MIC is more than 128 µg/mL with A. baumannii XDR UW 5075 (setting [9]); more than 128 µg/mL in the series on A. baumannii XDR UW 5075 (setting [10]); 128 µg/mL with A. baumannii XDR UW 5075 (setting [11]); 64 µg/mL in the series with A. baumannii XDR UW 5075 (setting [12]); more than 256 µg/mL in series [1]; more than 256 µg/mL in series [2]. In addition, the MIC in series [3] is more than 256 µg/mL; in series [4], more than 256 µg/mL; in [5], more than 256 µg/mL; in series [6], more than 256 µg/mL; in series [7], 256 µg/mL (≈ 750 µM); in series [8], more than 256 µg/mL.
`Cc1nc2ccccc2n1C(=O)/C=C/c1ccc(F)cc1` [Compound 2]: the MIC in the series on A. baumannii XDR UW 5075 (setting [9]) was more than 128 µg/mL; with A. baumannii XDR UW 5075 (setting [10]), more than 128 µg/mL; in the series on A. baumannii XDR UW 5075 (setting [11]), 64 µg/mL; in the series on A. baumannii XDR UW 5075 (setting [12]), 64 µg/mL; in series [1], more than 256 µg/mL; in series [2] it was more than 256 µg/mL. Further, the MIC was more than 256 µg/mL in series [3]; more than 256 µg/mL in series [4]; more than 256 µg/mL in series [5]; 256 µg/mL (≈ 913 µM) in series [6]; 256 µg/mL (≈ 913 µM) in series [7]; more than 256 µg/mL in [8]. Moreover, in the series with Caenorhabditis elegans, the “Toxicity toward C. elegans (survival)” value is reported as “do not have in vivo toxicity in this model at 2 × MICs for up to 72 h”. Also, the “Effect on FtsZ polymerization” value with E. coli FtsZ is given as “impaired polymerization”.
With `Cc1nc2ccccc2n1C(=O)/C=C/c1ccccc1` [Compound 1], the MIC in the series with A. baumannii XDR UW 5075 (setting [9]) is more than 128 µg/mL; in the series on A. baumannii XDR UW 5075 (setting [10]) it was more than 128 µg/mL; in the series on A. baumannii XDR UW 5075 (setting [11]) it was 128 µg/mL; in the series with A. baumannii XDR UW 5075 (setting [12]) it was 64 µg/mL; in series [1] it was more than 256 µg/mL; in series [2], more than 256 µg/mL. Further, the MIC in [3] is more than 256 µg/mL; in [4] it was more than 256 µg/mL; in [5], more than 256 µg/mL; in [6] it was 256 µg/mL (≈ 976 µM); in series [7], 256 µg/mL (≈ 976 µM); in series [8] it was more than 256 µg/mL. The “Toxicity toward C. elegans (survival)” value in the series with Caenorhabditis elegans is recorded as “do not have in vivo toxicity in this model at 2 × MICs for up to 72 h”.
